Results reported in patent US20250387399A1, “TREATMENT OF A SELECTIVE POPULATION OF PATIENTS HAVING DEMENTIA WITH LEWY BODIES” (EIP Pharma, LLC, priority 2021, published 2025).

Columns and labels:
Type in all cases: in vivo, human
[1] = test system: patients with mild-to-moderate DLB; experiment: AscenD-LB phase 2 study: DLB specific Neuropsychological Test Battery (NTB) z-score
Method: (§1) With the objective of uniformly achieving a target average plasma drug concentration of 20 nM patients, dosing regimen after randomization to neflamapimod or placebo was based on weight: • Weight<80 kg: 40 mg neflamapimod capsule or matching placebo capsule BID • Weight≥80 kg: 40 mg neflamapimod capsule or matching placebo capsule TID
(§2) As a result, efficacy analyses compared: (1) all neflamapimod (i.e., including 40 mg BID and 40 mg TID) vs. placebo; (2) 40 mg TID (dose group that achieved target concentration) vs. placebo; and (3) 40 mg TID vs. placebo TID.
(§3) Plasma ptau181 levels were determined by SIMOA pTau181 Assay (Quanterix) at the VU Medical Center, where the in-house defined cut-off for tau pathology was set at 2.2 pg/mL.

[2] = test system: patients with mild-to-moderate DLB; experiment: AscenD-LB phase 2 study: Attention Composite z-score
Method: as §1, §2, §3

[3] = test system: patients with mild-to-moderate DLB; experiment: AscenD-LB phase 2 study: Timed Up and Go (TUG) test
Method: as §1, §2, §3

[4] = test system: patients with mild-to-moderate DLB; experiment: AscenD-LB phase 2 study: Clinical Dementia Rating Scale sum-of-boxes (CDR-SB)
Method: as §1, §2, §3

[5] = test system: patients with mild-to-moderate DLB; experiment: AscenD-LB phase 2 study: International Shopping List Test (ISLT); settings: patients with baseline plasma ptau181 <2.2 pg/mL, 16 weeks
Method: as §1, §2, §3

[6] = AscenD-LB phase 2 study: plasma drug concentration
Method: as §1
Trough plasma drug concentrations 50% lower with 40 mg BID vs. 40 mg TID

[7] = test system: patients with mild-to-moderate DLB; experiment: AscenD-LB phase 2 study: treatment effect by baseline plasma ptau181 status (all major endpoints)
Method: Up to half of patients with DLB have tau pathology, or “AD copathology” (van der Lee et al, 2021) and such co-pathology may impact response to cholinesterase inhibitors (Graff-Radford et al, 2012). In patients with DLB, plasma phospho-tau (either ptau217 or ptau181) correlates with tau-PET signal in the temporal cortex and predicts abnormal tau-PET status and CSF β-amyloid status (Hall et al, 2021). Accordingly, plasma ptau181 levels were assessed in plasma samples obtained during the screening phase of AscenD-LB. The results on the association of tau pathology to treatment outcome in AscenD-LB are described below.
as §3

[8] = 40 mg TID vs. placebo TID, baseline plasma ptau181 < 2.2 pg/mL
[9] = 40 mg TID vs. placebo, baseline plasma ptau181 < 2.2 pg/mL
[10] = all neflamapimod (40 mg BID and TID) vs. placebo, baseline plasma ptau181 < 2.2 pg/mL
[11] = overall population, 91-patient, 16-week study, main analysis
[12] = 40 mg TID vs. all placebo, patients with baseline plasma ptau181 <2.2 pg/mL, 16 weeks
[13] = 40 mg TID vs. placebo TID, patients with baseline plasma ptau181 <2.2 pg/mL, 16 weeks

**Q.** For `O=c1ncn2nc(Sc3ccc(F)cc3F)ccc2c1-c1c(Cl)cccc1Cl` [neflamapimod, 5-(2,6-dichlorophenyl)-2-(2,4-difluorophenylthio)-6H-pyrimido [1,6-b]pyridazin-6-one], which “NTB z-score, difference vs. placebo (LMMRM)” value ([1]; 40 mg TID vs. all placebo, patients with baseline plasma ptau181 <2.2 pg/mL, 16 weeks, not significant) is on record?
**A.** Its value is 0.21.

**Q.** And the “NTB, Effect size, improvement in neflamapimod 40 mg TID vs. placebo TID” value [1, 8]?
**A.** The value was 0.61.

**Q.** What about the “NTB z-score, difference vs. placebo TID (LMMRM)” value ([1]; 40 mg TID vs. placebo TID, patients with baseline plasma ptau181 <2.2 pg/mL, 16 weeks, not significant) of the same molecule?
**A.** The value was 0.25.

**Q.** And the “NTB, Effect size, improvement in neflamapimod 40 mg TID vs. placebo” value [1, 9]?
**A.** The value was 0.56.

**Q.** And the “NTB, Effect size, improvement in all neflamapimod vs. placebo” value [1, 10]?
**A.** Its value is 0.15.

**Q.** And the “cognition assessed by NTB, relative to placebo” value [1, 11]?
**A.** The value was “significant improvement”.

**Q.** What about the “attention composite z-score, difference vs. placebo (LMMRM)” value [2, 12] of the same molecule?
**A.** Its value is 0.42 z-score.

**Q.** What about the “Attention, Effect size, improvement in neflamapimod 40 mg TID vs. placebo TID” value [2, 8] of the same molecule?
**A.** Its value is 0.70.

**Q.** And the “attention composite z-score, difference vs. placebo TID (LMMRM)” value [2, 13]?
**A.** The value was 0.46 z-score.

**Q.** And the “Attention, Effect size, improvement in neflamapimod 40 mg TID vs. placebo” value [2, 9]?
**A.** Its value is 0.78.

**Q.** And the “Attention, Effect size, improvement in all neflamapimod vs. placebo” value [2, 10]?
**A.** Its value is 0.29.

**Q.** What about the “TUG, difference vs. placebo (LMMRM)” value [3, 12] of the same molecule?
**A.** The value was -3.1 s.

**Q.** And the “Timed up and Go, Effect size, improvement in neflamapimod 40 mg TID vs. placebo TID” value [3, 8]?
**A.** The value was 0.70.

**Q.** What about the “TUG, difference vs. placebo TID (LMMRM)” value [3, 13] of the same molecule?
**A.** Its value is -3.5 s.

**Q.** What about the “Timed up and Go, Effect size, improvement in neflamapimod 40 mg TID vs. placebo” value [3, 9] of the same molecule?
**A.** Its value is 0.74.

**Q.** What about the “Timed up and Go, Effect size, improvement in all neflamapimod vs. placebo” value [3, 10] of the same molecule?
**A.** The value was 0.40.

**Q.** And the “motor function assessed by TUG test, relative to placebo” value [3, 11]?
**A.** The value was “significant improvement”.

**Q.** What about the “CDR-SB, difference vs. placebo (LMMRM)” value [4, 12] of the same molecule?
**A.** The value was −0.60 points.

**Q.** And the “CDR-SB, Effect size, improvement in neflamapimod 40 mg TID vs. placebo TID” value [4, 8]?
**A.** The value was 0.98.

**Q.** What about the “CDR-SB, difference vs. placebo TID (LMMRM)” value [4, 13] of the same molecule?
**A.** Its value is −0.93 points.

**Q.** And the “CDR-SB, Effect size, improvement in neflamapimod 40 mg TID vs. placebo” value [4, 9]?
**A.** The value was 0.70.

**Q.** What about the “CDR-SB, Effect size, improvement in all neflamapimod vs. placebo” value [4, 10] of the same molecule?
**A.** The value was 0.58.

**Q.** What about the “cognition and function assessed by CDR-SB, relative to placebo” value [4, 11] of the same molecule?
**A.** The value was “significant improvement”.

**Q.** And the “ISLD immediate recall, difference vs. placebo (LMMRM)” value ([5]; 40 mg TID vs. all placebo)?
**A.** Its value is 2.1 words.

**Q.** And the “ISLD recognition, difference vs. placebo (LMMRM)” value ([5]; 40 mg TID vs. all placebo)?
**A.** Its value is 1.4 words.

**Q.** What about the “ISLD immediate recall, difference vs. placebo TID (LMMRM)” value ([5]; 40 mg TID vs. placebo TID) of the same molecule?
**A.** Its value is 2.3 words.

**Q.** And the “ISLD recognition, difference vs. placebo TID (LMMRM)” value ([5]; 40 mg TID vs. placebo TID)?
**A.** The value was 0.9 words.

**Q.** What about the “shortfall from target average plasma drug concentration (20 nM)” value ([6]; 40 mg BID (weight <80 kg)) of the same molecule?
**A.** Its value is 30-40%.

**Q.** What about the “trough plasma drug concentrations, lower with 40 mg BID vs. 40 mg TID” value ([6]; 40 mg BID vs. 40 mg TID) of the same molecule?
**A.** The value was 50%.

**Q.** And the “attainment of target average plasma drug concentration (20 nM)” value ([6]; 40 mg TID (weight ≥80 kg))?
**A.** Its value is “achieved target plasma drug concentration”.

**Q.** And the “treatment effect on NTB z-score, attention z-score, TUG, CDR-SB (descriptive evaluation)” value ([7]; patients below the threshold (2.2 pg/mL) for having tau pathology)?
**A.** Its value is “positive treatment effects”.

**Q.** And the “treatment effect on NTB z-score, attention z-score, TUG, CDR-SB (descriptive evaluation)” value ([7]; patients with baseline plasma ptau181 above the threshold (2.2 pg/mL), i.e. with tau pathology)?
**A.** The value was “no discernible treatment effect”.

**Q.** What about the “magnitude of treatment effect relative to placebo for the individual endpoints, ptau181 <2.2 pg/mL population compared to overall population” value ([7]; plasma ptau181 <2.2 pg/mL at baseline vs. overall population) of the same molecule?
**A.** Its value is 1.5 to 2.0 fold.
